Data as given in patent EP4678638A1, “NEW E3 UBIQUITIN LIGASE LIGAND, PROTEIN DEGRADATION AGENT AND USE THEREOF” (priority 2023, dated 2024).

How the values were obtained:
[1] = target: T1, RSK1 (Homo sapiens, UniProt Q15418); experiment: Western blot degradation of RSK1 (hPBMC); type: cell-based; conditions: Table D8
T1 construct: evaluate the effects of the compounds of the present disclosure on the expression of target proteins in cells; endogenous in cells; host or cells: hPBMC
How it was run: (§1)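 Quantification by ImageJ densitometry of Western blot bands: DC50 is the fitted concentration halving band intensity relative to DMSO. Percent remaining uses internal-control normalization, and degradation rate is its complement.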

[2] = target: T2, RSK2 (Homo sapiens, UniProt P51812); experiment: Western blot degradation of RSK2 (hPBMC); type: cell-based; conditions: Table D8
T2 construct: evaluate the effects of the compounds of the present disclosure on the expression of target proteins in cells; endogenous in cells; host or cells: hPBMC
T2 sequence (P51812 whole entry): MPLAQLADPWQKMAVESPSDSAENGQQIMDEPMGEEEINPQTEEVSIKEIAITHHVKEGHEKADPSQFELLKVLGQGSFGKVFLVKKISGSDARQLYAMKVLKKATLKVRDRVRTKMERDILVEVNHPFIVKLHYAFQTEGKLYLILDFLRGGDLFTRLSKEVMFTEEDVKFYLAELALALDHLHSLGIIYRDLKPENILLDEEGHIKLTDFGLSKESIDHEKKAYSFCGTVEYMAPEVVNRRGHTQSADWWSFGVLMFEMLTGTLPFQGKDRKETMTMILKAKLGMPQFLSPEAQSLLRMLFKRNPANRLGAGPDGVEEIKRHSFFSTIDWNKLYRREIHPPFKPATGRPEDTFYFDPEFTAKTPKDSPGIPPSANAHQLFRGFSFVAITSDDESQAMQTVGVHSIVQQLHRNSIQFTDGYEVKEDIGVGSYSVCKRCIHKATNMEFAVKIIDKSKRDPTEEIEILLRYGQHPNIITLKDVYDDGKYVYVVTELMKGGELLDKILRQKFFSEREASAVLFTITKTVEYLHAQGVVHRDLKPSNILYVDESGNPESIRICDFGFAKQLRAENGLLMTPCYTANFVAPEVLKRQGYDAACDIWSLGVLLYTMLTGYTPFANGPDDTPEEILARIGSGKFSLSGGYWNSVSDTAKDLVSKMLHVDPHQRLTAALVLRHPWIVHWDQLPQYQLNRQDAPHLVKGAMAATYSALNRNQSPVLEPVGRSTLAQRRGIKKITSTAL
How it was run: as §1

T1 sequence (Q15418 whole entry): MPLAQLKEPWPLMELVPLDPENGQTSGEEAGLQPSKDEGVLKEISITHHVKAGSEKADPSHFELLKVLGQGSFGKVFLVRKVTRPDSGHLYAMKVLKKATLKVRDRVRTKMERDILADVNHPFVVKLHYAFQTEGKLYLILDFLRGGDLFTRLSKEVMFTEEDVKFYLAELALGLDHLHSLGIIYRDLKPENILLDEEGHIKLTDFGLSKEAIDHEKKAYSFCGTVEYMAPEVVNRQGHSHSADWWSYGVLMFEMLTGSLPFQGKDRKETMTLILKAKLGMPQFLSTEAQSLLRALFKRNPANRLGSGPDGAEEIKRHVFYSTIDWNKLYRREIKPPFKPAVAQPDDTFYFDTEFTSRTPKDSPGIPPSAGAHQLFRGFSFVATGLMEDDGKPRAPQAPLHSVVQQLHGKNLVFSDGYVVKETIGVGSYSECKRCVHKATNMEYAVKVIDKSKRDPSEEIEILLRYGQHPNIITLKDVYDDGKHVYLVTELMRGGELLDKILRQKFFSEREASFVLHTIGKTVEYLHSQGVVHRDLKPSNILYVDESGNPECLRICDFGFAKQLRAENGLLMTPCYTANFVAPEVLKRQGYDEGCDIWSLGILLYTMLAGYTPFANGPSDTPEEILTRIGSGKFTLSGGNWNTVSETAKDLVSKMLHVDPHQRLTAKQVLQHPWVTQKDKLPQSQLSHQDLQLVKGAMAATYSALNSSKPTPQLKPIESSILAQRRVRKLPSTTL

SMILES | Degradation of substrate protein RSK1 (substrate protein remaining %) [1] | Degradation of substrate protein RSK2 (substrate protein remaining %) [2]
C[C@@H]1CNC(=O)c2cc3ccc(C(=O)Nc4cnn(Cc5ccc(N6CCN(Cc7cccc(N8CCC(=O)NC8=O)c7)CC6)cc5)c4)nc3n21 [GT-07928, (R)-N-(1-(4-(4-(3-(2,4-dioxotetrahydropyrimidin-1(2H)-yl)benzyl)piperazin-1-yl)benzyl)-1H-pyrazol-4-yl)-9-methyl-6-oxo-6,7,8,9-tetrahydropyrido[3',2':4,5]py rrolo[1,2-a]pyrazine-2-carboxamide] | A (A is defined as 0% ≤ substrate protein remaining % ≤ 80%) | A (A is defined as 0% ≤ substrate protein remaining % ≤ 80%)
C[C@@H]1CNC(=O)c2cc3ccc(C(=O)Nc4cnn(Cc5ccc(N6CCN(Cc7ccc(N8CCC(=O)NC8=O)cn7)CC6)cc5)c4)nc3n21 [GT-07929, (R)-N-(1-(4-(4-((5-(2,4-dioxotetrahydropyrimidin-1(2H)-yl)pyridin-2-yl)methyl)piperazin-1-yl)benzyl)-1H-pyrazol-4-yl)-9-methyl-6-oxo-6,7,8,9-tetrahydropyrido[3',2':4,5]py rrolo[1,2-a]pyrazine-2-carboxamide] | A (A is defined as 0% ≤ substrate protein remaining % ≤ 80%) | B (B is defined as substrate protein remaining % > 80%)
C[C@@H]1CNC(=O)c2cc3ccc(C(=O)Nc4cnn(Cc5ccc(N6CCC(N(C)Cc7cccc(N8CCC(=O)NC8=O)c7)CC6)cc5)c4)nc3n21 [GT-07939, (R)-N-(1-(4-(4-((3-(2,4-dioxotetrahydropyrimidin-1(2H)-yl)benzyl)(methyl)amino)piperidin-1-yl)benzyl)-1H-pyrazol-4-yl)-9-methyl-6-oxo-6,7,8,9-tetrahydropyrido[3',2':4,5]py rrolo[1,2-a]pyrazine-2-carboxamide] | A (A is defined as 0% ≤ substrate protein remaining % ≤ 80%) | B (B is defined as substrate protein remaining % > 80%)
C[C@@H]1CNC(=O)c2cc3ccc(C(=O)Nc4cnn(Cc5ccc(N6CCN(Cc7ncc(C8CCC(=O)NC8=O)cc7F)CC6)cc5)c4)nc3n21 (stereo partly drawn) [GT-07933, (9R)-N-(1-(4-(4-((5-(2,6-dioxopiperidin-3-yl)-3-fluoropyridin-2-yl)methyl)piperazin-1-yl)benzyl)-1H-pyrazol-4-yl)-9-methyl-6-oxo-6,7,8,9-tetrahydropyrido[3',2':4,5]py rrolo[1,2-a]pyrazine-2-carboxamide] | A (A is defined as 0% ≤ substrate protein remaining % ≤ 80%) | B (B is defined as substrate protein remaining % > 80%)
C[C@@H]1CNC(=O)c2cc3ccc(C(=O)Nc4cnn(Cc5ccc(NCc6cc(N7CCC(=O)NC7=O)ncc6F)cc5)c4)nc3n21 [GT-07794, (R)-N-(1-(4-(((2-(2,4-dioxotetrahydropyrimidin-1(2H)-yl)-5-fluoropyridin-4-yl)methyl)amino)benzyl)-1H-pyrazol-4-yl)-9-methyl-6-oxo-6,7,8,9-tetrahydropyrido[3',2':4,5]pyrrolo[1,2-a]pyrazine-2-carboxamide] | A (A is defined as 0% ≤ substrate protein remaining % ≤ 80%) | B (B is defined as substrate protein remaining % > 80%)
